{"source": "the OPERA property sets (Mansouri et al. 2018)", "data": [{"conditions": "not given", "units": {"melting point": "°C", "boiling point": "°C"}, "values": [{"smiles": "C#CC(C)N(C(=O)CCl)c1ccccc1", "note": "(configuration not stated)", "melting point": 43.5}, {"smiles": "C[C@]12CC[C@@H](O)C[C@@H]1CC[C@@H]1[C@@H]2CC[C@]2(C)C(=O)CC[C@@H]12", "melting point": 182}, {"smiles": "Clc1ccc(-c2ccccc2Cl)c(Cl)c1", "log10 Koc (L/kg)": 4.84}, {"smiles": "CCCCCCCCCCOc1c(OC)cc(C(N)=O)cc1OC", "melting point": 122}, {"smiles": "CC(C)C(C(=O)OC(C#N)c1cccc(Oc2ccccc2)c1)c1ccc(Cl)cc1", "note": "(configuration not stated)", "log10 Koc (L/kg)": 3.73, "log10 vapour pressure (mmHg)": -8.82, "melting point": 52.2}, {"smiles": "CC(=O)CC(=O)Nc1ccc(C)cc1C", "melting point": 90, "ready biodegradability": "not readily biodegradable"}, {"smiles": "CCN(CC)CCNC(=O)c1cc(S(C)(=O)=O)ccc1OC", "melting point": 124}, {"smiles": "CCC[C@@H](O)CC", "boiling point": 135, "log10 vapour pressure (mmHg)": 0.682}, {"smiles": "NCc1cc(O)no1", "melting point": 175}, {"smiles": "Cc1cccc(C(N)=O)c1", "melting point": 95}, {"smiles": "CCCCOP(=O)(O)OCCCC", "melting point": -13, "ready biodegradability": "not readily biodegradable"}, {"smiles": "CCOC(=O)c1cccc(C)c1", "boiling point": 234}, {"smiles": "Cc1ncc([N+](=O)[O-])n1C", "melting point": 138}, {"smiles": "Cc1c2ccccc2cc2ccc3ccccc3c12", "melting point": 138}, {"smiles": "O=C(O)c1ccc(F)cc1", "melting point": 185}, {"smiles": "O=CCCCCC=O", "melting point": -8}, {"smiles": "O=[N+]([O-])c1c(F)c(F)c(F)c(F)c1F", "boiling point": 160}, {"smiles": "OCCOc1ccc(Cl)cc1Cl", "log10 vapour pressure (mmHg)": -3.7}, {"smiles": "Cc1cccc(C(=O)c2ccccc2)c1", "boiling point": 317}, {"smiles": "Nc1cccc(N)c1", "boiling point": 285, "log10 vapour pressure (mmHg)": -2.68, "melting point": 63.5, "ready biodegradability": "not readily biodegradable"}, {"smiles": "CC[C@H]1CCCC[C@H]1C", "boiling point": 154}, {"smiles": "CC(C)c1cc(C(C)C)cc(C(C)C)c1", "boiling point": 238, "melting point": -7.4}, {"smiles": "CN(C)c1cccc2c(S(=O)(=O)Cl)cccc12", "melting point": 70}, {"smiles": "CCN(CC)C(=S)SSC(=S)N(CC)CC", "melting point": 71.5}, {"smiles": "CCC(C)I", "note": "(configuration not stated)", "boiling point": 120, "log10 vapour pressure (mmHg)": 1.23, "melting point": -104}, {"smiles": "C=CCN1CCCC1CNC(=O)c1cc(S(=O)(=O)NC)c(N)cc1OC", "note": "(configuration not stated)", "melting point": 169}, {"smiles": "O=C(O)CP(=O)(O)O", "melting point": 144}, {"smiles": "Cc1cc(CC(C)CC(C)(C)C)n(O)c(=O)c1", "note": "(configuration not stated)", "melting point": 108}, {"smiles": "CCOC(=O)C(=O)c1ccccc1", "boiling point": 256}, {"smiles": "CCC1(C2=CCCCC2)C(=O)NC(=O)NC1=O", "melting point": 173}, {"smiles": "COC(=O)c1ccccc1O[C@@H]1O[C@H](CO[C@@H]2OC[C@@H](O)[C@H](O)[C@H]2O)[C@@H](O)[C@H](O)[C@H]1O", "melting point": 180}, {"smiles": "CC(C)C(C)C(C)(C)C", "note": "(configuration not stated)", "boiling point": 133, "log10 vapour pressure (mmHg)": 1.1, "melting point": -121}, {"smiles": "Fc1ccc(-c2ccccc2)cc1", "boiling point": 253, "melting point": 74.2}, {"smiles": "CCOC(=O)COC", "boiling point": 142}, {"smiles": "O=CC1CC=CCC1", "note": "(configuration not stated)", "boiling point": 105, "melting point": 2}, {"smiles": "CCCCN(CC)C(=O)SCCC", "boiling point": 202, "log10 Koc (L/kg)": 2.8, "log10 vapour pressure (mmHg)": -1.05, "melting point": -22, "ready biodegradability": "readily biodegradable"}, {"smiles": "COc1ccc(CCl)cc1", "boiling point": 262, "melting point": 24.5}, {"smiles": "CCN(CC)CCOCCO", "boiling point": 222}, {"smiles": "O=C1CCC(c2ccccc2)O1", "note": "(configuration not stated)", "boiling point": 306, "melting point": 36.5}, {"smiles": "CC(=O)CCCC(=O)O", "boiling point": 274, "melting point": 13.5}, {"smiles": "COC(=O)CSc1cc(/N=c2\\sc(=O)n3n2CCCC3)c(F)cc1Cl", "log10 vapour pressure (mmHg)": -8.48, "melting point": 106}, {"smiles": "c1ccc(CN(Cc2ccccc2)c2ccccc2)cc1", "melting point": 69}, {"smiles": "C[C@](N)(Cc1ccc(O)cc1)C(=O)O", "melting point": 312}, {"smiles": "O=[N+]([O-])c1c(Cl)c(Cl)cc(Cl)c1Cl", "boiling point": 304, "log10 Koc (L/kg)": 4.05, "log10 vapour pressure (mmHg)": -2.74, "melting point": 99.5}, {"smiles": "CCCCC(Cl)CCl", "note": "(configuration not stated)", "boiling point": 173}, {"smiles": "Clc1ccc2c(Cl)ccc(Cl)c2c1", "log10 Koa": 7.27}, {"smiles": "O=c1c2cc(F)ccc2nc(-n2cncn2)n1-c1ccc(Cl)cc1Cl", "log10 Henry constant (atm·m³/mol)": -10.7, "log10 vapour pressure (mmHg)": -10.3, "melting point": 192}, {"smiles": "CCOC(=O)CCC(C)CC", "note": "(configuration not stated)", "boiling point": 180}, {"smiles": "Cc1ccc2c(c1N)C(=O)c1ccccc1C2=O", "log10 Koc (L/kg)": 3.9, "melting point": 206}, {"smiles": "NC(=O)c1ccc(N)cc1", "melting point": 182}, {"smiles": "COc1cc(C=C2CCCC(=Cc3ccc(O)c(OC)c3)C2=O)ccc1O", "melting point": 178}, {"smiles": "Cc1cc(Br)ccc1O", "boiling point": 235, "melting point": 64.7}, {"smiles": "O=C(Nc1ccccc1)Nc1ccccc1", "boiling point": 262, "log10 vapour pressure (mmHg)": -5.12, "melting point": 239}, {"smiles": "COc1cc(Cl)c(Cl)cc1Cl", "boiling point": 254, "melting point": 77.5}, {"smiles": "OCCn1ccnc1", "melting point": 39}, {"smiles": "CN1CN(C)CN(C)C1", "boiling point": 163, "melting point": -27}, {"smiles": "CCCCOCCOCCOC(C)=O", "boiling point": 245, "log10 vapour pressure (mmHg)": -1.4, "melting point": -32, "ready biodegradability": "readily biodegradable"}, {"smiles": "ClCCBr", "boiling point": 107, "log10 Henry constant (atm·m³/mol)": -3.04, "log10 vapour pressure (mmHg)": 1.52, "melting point": -16.7}, {"smiles": "CCCCCCCCCCCCCCCCCCCCCCCCCCCCO", "melting point": 83.3, "ready biodegradability": "readily biodegradable"}, {"smiles": "COc1ccc(N)c(C)c1", "boiling point": 248, "melting point": 29.5}, {"smiles": "CC(=O)OCC(=O)O", "melting point": 67.5}, {"smiles": "CN(C)C(=O)Nc1ccc(F)cc1", "log10 Koc (L/kg)": 1.43}, {"smiles": "ClCCCCCl", "boiling point": 161, "log10 Henry constant (atm·m³/mol)": -3.31, "log10 vapour pressure (mmHg)": 0.616, "melting point": -37.3, "ready biodegradability": "not readily biodegradable"}, {"smiles": "CCCCCCCCCCCCCCCCCCCc1ccccc1", "boiling point": 419, "melting point": 40}, {"smiles": "O=C(Oc1ccccc1)n1c(C(F)(F)F)nc2cc(Cl)c(Cl)cc21", "melting point": 103}, {"smiles": "C1=CC2CCC1C2", "boiling point": 96, "log10 vapour pressure (mmHg)": 1.59, "melting point": 45}, {"smiles": "CCCCCCN(CCCCCC)CCCCCC", "boiling point": 262}, {"smiles": "Oc1ccc(C2CCCC2)cc1", "melting point": 65}, {"smiles": "CCCB(O)O", "melting point": 107}, {"smiles": "CCCCCCCCCCCCC(C)=O", "melting point": 33.5}, {"smiles": "CCCC(O)C(C)(C)C", "note": "(configuration not stated)", "boiling point": 156}, {"smiles": "ClCC(Cl)(CCl)CCl", "boiling point": 211}, {"smiles": "CCCCCCCCCC(=O)N(CCO)CCO", "ready biodegradability": "readily biodegradable"}, {"smiles": "CC(=O)Oc1ccccc1OC(C)=O", "melting point": 64.5}, {"smiles": "FC(F)OC(F)(F)C(F)Cl", "note": "(configuration not stated)", "boiling point": 56.5}, {"smiles": "C=CCCCCCCCCCO", "boiling point": 250, "melting point": -2}, {"smiles": "Oc1ccc2cc(Cl)ccc2c1", "melting point": 116}, {"smiles": "CCCCN(CCCC)c1ccccc1", "boiling point": 275, "melting point": -32.2}, {"smiles": "Clc1ccccc1I", "boiling point": 234, "melting point": 0.7}, {"smiles": "CC(=O)c1ccsc1", "boiling point": 210, "melting point": 60}, {"smiles": "CCNC(=O)OCC", "boiling point": 176}, {"smiles": "Ic1cccc(I)c1", "boiling point": 285, "melting point": 40.4}, {"smiles": "O=C(O)[C@H]1O[C@@H](OCC(Cl)(Cl)Cl)[C@H](O)[C@@H](O)[C@@H]1O", "melting point": 142}, {"smiles": "CC(Cl)Br", "note": "(configuration not stated)", "boiling point": 83, "log10 vapour pressure (mmHg)": 1.93}, {"smiles": "CC(C)c1ccc(C(C)C)cc1", "boiling point": 210, "log10 vapour pressure (mmHg)": -0.609, "melting point": -17, "ready biodegradability": "not readily biodegradable"}, {"smiles": "CC/C(=C(\\c1ccccc1)c1ccc(OCCN(C)C)cc1)c1ccccc1", "melting point": 97}, {"smiles": "O=Cc1ccoc1", "boiling point": 145}, {"smiles": "C=COCC(F)(F)F", "boiling point": 42.5}, {"smiles": "CC(=O)Oc1cccc(O)c1", "boiling point": 283}, {"smiles": "CC1(C)COC1", "boiling point": 80.6}, {"smiles": "O=[N+]([O-])c1cc([N+](=O)[O-])c(Cl)c(C(F)(F)F)c1", "melting point": 63}, {"smiles": "CC(C)(N)Cc1ccccc1Cl", "ready biodegradability": "not readily biodegradable"}, {"smiles": "COc1cc(NC(=O)C(N=Nc2ccc(-c3ccc(N=NC(C(C)=O)C(=O)Nc4cc(OC)c(Cl)cc4OC)c(Cl)c3)cc2Cl)C(C)=O)c(OC)cc1Cl", "note": "(configuration not stated)", "ready biodegradability": "not readily biodegradable"}, {"smiles": "C1CCC(NC2CCCCC2)CC1", "boiling point": 256, "log10 vapour pressure (mmHg)": -1.47, "melting point": -0.1, "ready biodegradability": "readily biodegradable"}, {"smiles": "Cc1ncc(COP(=O)(O)O)c(C=O)c1O.O", "melting point": 142}, {"smiles": "COc1ccc2c(c1)c(CC(=O)O)c(C)n2C(=O)c1ccc(Cl)cc1", "melting point": 158}, {"smiles": "CC1=C(/C=C/C(C)=C/C=C/C(C)=C/C=O)C(C)(C)CCC1", "melting point": 63}, {"smiles": "FC(F)F", "boiling point": -82.1, "log10 Henry constant (atm·m³/mol)": -1.02, "log10 vapour pressure (mmHg)": 4.55, "melting point": -155}, {"smiles": "Nc1nccs1", "melting point": 93, "ready biodegradability": "not readily biodegradable"}, {"smiles": "CC=Cc1ccc(OC)c(OC)c1", "boiling point": 270, "melting point": 18}, {"smiles": "CC1(C)C(C(=O)OC(C#N)c2cccc(Oc3ccccc3)c2)C1(C)C", "note": "(configuration not stated)", "log10 vapour pressure (mmHg)": -5.26, "melting point": 47}, {"smiles": "COC(=O)NS(=O)(=O)c1ccc(N)cc1", "log10 Koc (L/kg)": 1.6, "melting point": 144}, {"smiles": "CN(C)C(=O)Nc1cccc(F)c1", "log10 Koc (L/kg)": 1.73}, {"smiles": "CNCCc1ccccc1", "boiling point": 206}, {"smiles": "CN(CCCN1c2ccccc2CCc2ccccc21)CC(=O)c1ccc(Cl)cc1", "melting point": 105}, {"smiles": "COc1ccc(O[C@@H]2O[C@H](CO)[C@H](O)[C@H](O)[C@H]2O)cc1", "melting point": 159}]}, {"conditions": "fish", "values": [{"smiles": "CC(C)C(C(=O)OC(C#N)c1cccc(Oc2ccccc2)c1)c1ccc(Cl)cc1", "note": "(configuration not stated)", "log10 BCF": 2.85, "log10 biotransformation half-life (days)": 0.69}, {"smiles": "Nc1cccc(N)c1", "log10 BCF": 0.81}, {"smiles": "O=[N+]([O-])c1c(Cl)c(Cl)cc(Cl)c1Cl", "log10 BCF": 3.23, "log10 biotransformation half-life (days)": 0.49}, {"smiles": "COc1cc(Cl)c(Cl)cc1Cl", "log10 BCF": 2.81}, {"smiles": "CC(C)c1ccc(C(C)C)cc1", "log10 BCF": 3.24, "log10 biotransformation half-life (days)": 0.6}]}]}
